Test results taken from paper PMC7710018, “Restoration of motor learning in a mouse model of Rett syndrome following long-term treatment with a novel small-molecule activator of TrkB” (Disease Models & Mechanisms, 2020).

Key:
TrkB = assay: In vivo TrkB signaling, western blot of hippocampus and mPFC; design: species or system mouse; conditions: male Mecp2 null mice, vs saline
Method: (§1) Animals were given either single or repeated doses of PTX-BD4-3 (50 mg/kg, i.p.) or vehicle (saline) and then sacrificed for tissue harvesting and western blot analysis of phosphorylated and total TrkB (pTrkB/TrkB), AKT (also known as AKT1) (pAKT/AKT) and ERK (also known as MAPK) (pERK/ERK), respectively, in the hippocampus and medial prefrontal cortex (mPFC).
(§2) Fig. 4. PTX-BD4-3 activates TrkB signaling in vivo following systemic administration in null male Mecp2 mutant mice. Null mice were treated for 5 days with once daily injections of PTX-BD4-3 (open bars, 50 mg/kg, i.p.) or saline (black bars, vehicle) and then sacrificed 1 h after the last injection. Brain lysates from the hippocampus and medial prefrontal cortex (mPFC) were processed for western blot analysis of phosphorylated and total TrkB (pTrkB^Y817/TrkB), AKT (pAKT/AKT) and ERK (pERK/ERK) as described in the Materials and Methods. For detection of total TrkB, AKT and ERK, blots were concomitantly probed with the respective total protein antibodies and each of the three bands quantitated as indicated by arrows. For ERK, the pair of bands (consistent with ERK1 and ERK2 isoforms) indicated by the brackets was quantitated together as one value. For each tissue, the same blot and images for total protein (TrkB, AKT, ERK, actin) are shown here in triplicate as an adjacent reference to phospho-protein detection. For detection of phospho-proteins in the hippocampus, blots were probed separately with the three indicated phospho antibodies. For detection in the mPFC, blots were probed separately for pTrkB and probed for pAKT and pERK concomitantly; and for the latter two, the same blot and image are shown here in duplicate as an adjacent reference to phospho-protein detection. ^§P<0.01 (compared to vehicle); *P<0.05 (compared to vehicle); Student's t-test.
(§3) Frozen tissues were lysed in RIPA lysis buffer (150 mM NaCl, 50 mM Tris, pH 7.4, 1 mM EDTA, 1% Triton X-100 or 1% NP40, 10% glycerol, 1 mM phenylmethylsulfonyl fluoride, Na3VO4 and protease inhibitor cocktail). Lysates were mixed with 4× NuPAGE LDS loading buffer and dithiothreitol, and 50 μg protein was loaded per lane on a NuPAGE 4-12% Bis-Tris gradient gel and transferred to polyvinylidene difluoride membrane (run at 100 V for 1.5 h). […]

ERK = assay: as above; design: species or system mouse; conditions: male Mecp2 null mice, 50 mg/kg i.p. once daily 5 days, 1 h after last injection, vs saline
Method: as §1, §2, §3

[1] = test system: heterozygous (Het) female Mecp2 mutant mice; assay: Phenotype severity score; format: in vivo, mouse; conditions: for group average phenotype severity score: 5 mg/kg q72 hrs
Method: Group Pre‐Treatment Week 2 Week 4 Week 6 Week 8
Table S3. Group average bi-weekly phenotype severity scores after repeated dosing with PTX-BD4-3 (5 mg/kg, q72 hrs). Animals were assigned aggregate scores of phenotypic severity based on visual assessments of mobility, hind limb clasping, gait analysis, tremors, respiration and overall physical condition (scoring range = 0-12; Guy et al., 2007). The phenotype severity scores of Het animals […]
(also on this page, place not known: tr eatment Disease Models & Mechanisms: doi:10.1242/dmm.044685: Supplementary information Disease Models & Mechanisms • Supplementary information) […]

[2] = test system: heterozygous (Het) female Mecp2 mutant mice; assay: Forelimb grip strength; format: in vivo, mouse; conditions: chronic intermittent 5 mg/kg q72 h
Method: This improvement is consistent with previous reports of motor learning in response to repeated exposure to Rotarod testing ([Buitrago et al., 2004]). […] To investigate this possibility, we evaluated Rotarod performance in additional cohorts of animals that received chronic intermittent dosing with PTX-BD4-3 and only one exposure to Rotarod testing, at the end of the 8-week treatment period (Fig. 7A).
Fig. 7. […] (A) Repeated dosing with PTX-BD4-3 (5 mg/kg, q72 h) for 8 weeks had no impact on latency to fall in animals that were tested only at the end of the 8-week treatment period. Rotarod performance was measured over three successive trials, 24 h after the last dose. n=15-16 subjects derived from two independent experiments. (B) Het mice show no deficit in forelimb grip strength compared to Wt controls, and no increase in grip strength in response to treatment with PTX-BD4-3. n=9-20 subjects derived from two independent experiments. *P<0.05, **P<0.001 compared to saline-treated Wt mice. One-way ANOVA with LSD post hoc analysis. Black, saline-treated Wt mice; gray, saline-treated Het mice; red, PTX-BD4-3-treated Het mice.

[3] = test system: 3T3 parent line, which does not express Trk receptors; assay: NIH-3T3 cell survival; format: cell-based, mouse; conditions: serum-free medium
[4] = test system: rat model of traumatic brain injury; design: method as in Massa et al., 2010; conditions: ref Massa et al., 2010; cited from earlier work
Het mice = test system: Het mice; design: method as in Li et al., 2017; conditions: long-term treatment of Het mice; ref Li et al., 2017; cited from earlier work
[5] = test system: 55 pharmacologically relevant receptors; design: method as in Massa et al., 2010; conditions: standard screening concentration; ref Massa et al., 2010; cited from earlier work

SMILES | pTrkB/TrkB (TrkB; 50 mg/kg i.p. once daily 5 days, 1 h after last injection, hippocampus and mPFC) | expression of total TrkB, AKT or ERK (TrkB; 50 mg/kg i.p.) | pERK/ERK (ERK) | change of global phenotypic severity scores over the time course ([1]; 5 mg/kg q72 h, pre-treatment vs 8 weeks) | group average phenotype severity score ([1]; Week 2, scoring range 0-12, pre-treatment 2.73) | group average phenotype severity score ([1]; Week 4, scoring range 0-12) | group average phenotype severity score ([1]; Week 6, scoring range 0-12) | group average phenotype severity score ([1]; Week 8, scoring range 0-12) | forelimb grip strength [2] | survival of the 3T3 parent line [3] | motor learning [4] | behavioral learning in a spatial memory task (Het mice) | binding within the panel of 55 receptors [5]
COCCN(C)C(=O)c1cc(C(=O)N(C)CCOC)cc(C(=O)N(C)CCOC)c1 [PTX-BD4-3, benzene-1,3,5-tricarboxylic acid tris-[(2-methoxy-ethyl)-methyl-amide]] | significantly increased | No differences | no significant effect | did not increase significantly | 3.46 | 3.66 | 4.33 | 3.66 | no gain in grip strength | did not support survival | – | – | –
O=C(NCCO)c1cc(C(=O)NCCO)cc(C(=O)NCCO)c1 [LM22A-4, N,N′,N′′-tris(2-hydroxyethyl)-1,3,5-benzenetricarboxamide, reference compound] | – | – | – | – | – | – | – | – | – | – | improve motor learning | improves behavioral learning | no significant binding
